Active and inactive are the calls of the source. The calls are words filed in the database; no cut-off is given here.
Legend:
Ralstonia solanacearum [1] = assay type: functional
Ralstonia solanacearum [2] = assay type: functional; remark: listed apart in the source
Ralstonia solanacearum [3] = system: Ralstonia solanacearum
Ralstonia solanacearum [4] = system: Ralstonia solanacearum; remark: listed apart in the source
Ralstonia solanacearum [5] = assay type: functional; remark: listed apart in the source
Ralstonia solanacearum [6] = assay type: functional; remark: listed apart in the source

SMILES	diameter of the inhibition zone (DIZ) (Ralstonia solanacearum [1]) [mm]	DIZ (Ralstonia solanacearum [3])	DIZ (Ralstonia solanacearum [4])	also measured
CCOC(=O)c1cc(O)c(O)c(O)c1 [ETHYLGALLATE]	42			diameter of the inhibition zone (DIZ) (Ralstonia solanacearum [2]): 18 mm
O=C(O)/C=C/c1ccccc1 [CINNAMIC ACID]	13	inactive		
CCCCCCCCOC(=O)c1cc(O)c(O)c(O)c1 [OCTYL_GALLATE]	12			diameter of the inhibition zone (DIZ) (Ralstonia solanacearum [2]): 11 mm
O=c1c(O)c(-c2ccc(O)c(O)c2)oc2cc(O)cc(O)c12		inactive	inactive	
COC(=O)c1ccc(O)c(OC)c1 [METHYL VANILLATE]	15	inactive		
CCCCCCCCCCCCOC(=O)c1cc(O)c(O)c(O)c1		inactive	inactive	
CCCCCCCCCOC(=O)c1ccc(O)cc1		inactive	inactive	
COC(=O)c1cc(O)c(O)c(O)c1 [GALLIC ACID METHYL ESTER]	54			diameter of the inhibition zone (DIZ) (Ralstonia solanacearum [2]): 22 mm; diameter of the inhibition zone (DIZ) (Ralstonia solanacearum [5]): 18 mm; diameter of the inhibition zone (DIZ) (Ralstonia solanacearum [6]): 11 mm
O=c1oc2c(O)c(O)cc3c(=O)oc4c(O)c(O)cc1c4c23		inactive	inactive	
COC(=O)c1cc(O)cc(O)c1 [METHYL 3,5-DIHYDROXYBENZOATE]	18	inactive		
COC(=O)c1ccc(O)cc1 [METHYLPARABEN]	36	inactive		
COC(=O)c1ccc(O)c(O)c1 [METHYL PROTOCATECHUATE]	37			diameter of the inhibition zone (DIZ) (Ralstonia solanacearum [2]): 11 mm
CCOC(=O)c1ccc(O)cc1 [ETHYLPARABEN]	29	inactive		
O=C(O)/C=C/c1ccc(O)c(O)c1		inactive	inactive	
COc1cc(/C=C/C(=O)O)cc(OC)c1O		inactive	inactive	
O=C(O)/C=C/c1ccccc1O [O-COUMARIC ACID]	16	inactive		
COC(=O)c1cc(O)ccc1O [METHYL 2,5-DIHYDROXYBENZOATE]	43	inactive		

SMILES	diameter of the inhibition zone (DIZ) (Ralstonia solanacearum [1]) [mm]	DIZ (Ralstonia solanacearum [3])	DIZ (Ralstonia solanacearum [4])	also measured
COC(=O)c1ccccc1O		inactive	inactive	
O=C(O)c1ccccc1O [SALICYLIC ACID]	16			
COC(=O)c1cccc(O)c1 [METHYL 3-HYDROXYBENZOATE]	23	inactive		
O=C(O)c1cc(O)c(O)c(O)c1 [GALLIC ACID]	12	inactive		
COc1cc(/C=C/C(=O)O)ccc1O		inactive	inactive	
COC(=O)c1ccc(O)cc1O [METHYL 2,4-DIHYDROXYBENZOATE]	32	inactive		
COC(=O)c1ccc(OC)cc1O	11	inactive		
COC(=O)c1cccc(O)c1O [METHYL 2,3-DIHYDROXYBENZOATE]	58			diameter of the inhibition zone (DIZ) (Ralstonia solanacearum [2]): 13 mm
CCCOC(=O)c1ccc(O)cc1 [PROPYLPARABEN]	17	inactive		
O=C(O)c1cccc(O)c1 [3-HYDROXYBENZOIC ACID]	14	inactive		
COC(=O)c1cc(OC)cc(OC)c1		inactive	inactive	
COc1ccc(/C=C/C(=O)O)cc1O		inactive	inactive	
O=C(O)c1ccc(O)cc1 [PARABEN]	13	inactive		
CCCOC(=O)c1cc(O)c(O)c(O)c1 [PROPYL GALLATE]	31			diameter of the inhibition zone (DIZ) (Ralstonia solanacearum [2]): 11 mm
O=C(/C=C/c1ccc(O)c(O)c1)O[C@@H]1C[C@](O)(C(=O)O)C[C@@H](O)[C@H]1O		inactive	inactive	
C[C@@H]1O[C@@H](OC[C@H]2O[C@@H](Oc3c(-c4ccc(O)c(O)c4)oc4cc(O)cc(O)c4c3=O)[C@H](O)[C@@H](O)[C@@H]2O)[C@H](O)[C@H](O)[C@H]1O		inactive	inactive	
O=C(O)/C=C/c1ccc(O)cc1 [COUMARIC ACID]	11	inactive		

— ChEMBL document CHEMBL3046865, “Antibacterial activity of alkyl gallates and related compounds against Ralstonia solanacearum” (2011)
